Test results from ChEMBL document CHEMBL6109102, “Conjugation with the XJB peptide enhanced neuroprotective effect of honokiol via SIRT3 modulation” (Eur J Med Chem, 2025).
The source made the active and inactive calls. The calls are words filed in the database; no cut-off is given here.

Columns and labels:
PC-12 [1] = experiment: Neuroprotective activity in H2O2-induced rat PC12 cells assessed as reversal of mitochondrial membrane potential reduction by measuring red fluorescence fold change at […] incubated with compound for 24 hrs followed by H2O2 addition and measured after 24 hrs by JC-1 based fluorescence microscopic analysis (reference value: 1.00); type: functional
PC-12 [2] = experiment: Neuroprotective activity in H2O2-induced rat PC12 cells assessed as reversal of mitochondrial membrane potential reduction by measuring green fluorescence fold change at 2.5 uM incubated with compound for 24 hrs followed by H2O2 addition and measured after 24 hrs by JC-1 based fluorescence microscopic analysis (reference value: 1.00); type: functional
PC-12 [3] = experiment: Neuroprotective activity in H2O2-induced rat PC12 cells assessed as reduction in cell viability in presence of 3-TYP at 10 uM; type: functional, cell-based
PC-12 [4] = experiment: Neuroprotective activity in H2O2-induced rat PC12 cells assessed as reversal of mitochondrial membrane potential reduction by measuring red fluorescence fold change at 2.5 uM incubated with compound for 24 hrs followed by H2O2 addition and measured after 24 hrs by JC-1 based fluorescence microscopic analysis (reference value: 1.00); type: functional
PC-12 [5] = experiment: Neuroprotective activity against H2O2-induced cell injury in rat PC12 cells assessed as cell viability incubated for 24 hrs by MTT assay; type: functional, cell-based; details: dose 0.37-30 µM
PC-12 [6] = experiment: Neuroprotective activity in H2O2-induced rat PC12 cells assessed as reversal of mitochondrial membrane potential reduction by measuring green fluorescence at 1.5 uM incubated with compound for 24 hrs followed by H2O2 addition and measured after 24 hrs by JC-1 based fluorescence microscopic analysis (reference value: 4.90 a.u.); type: functional
PC-12 [7] = experiment: Induction of autophagy in H2O2-induced rat PC12 cells assessed as upregulation of LC3-II/I ratio by Western blot analysis; type: functional, cell-based; details: dose 1.25-5 µM
PC-12 [8] = experiment: Neuroprotective activity in H2O2-induced rat PC12 cells assessed as reversal of mitochondrial membrane potential reduction by measuring red fluorescence at 5 uM incubated with compound for 24 hrs followed by H2O2 addition and measured after 24 hrs by JC-1 based fluorescence microscopic analysis (reference value: 21.62 a.u.); type: functional
SH-SY5Y = experiment: Cytotoxicity against human SH-SY5Y cells assessed as inhibition of cell viability at 100 uM incubated for 24 hrs by MTT assay; type: functional, cell-based
PC-12 [9] = experiment: Neuroprotective activity in H2O2-induced rat PC12 cells assessed as upregulation of Mfn-1 expression at 1.25 to 5 uM by Western blot analysis; type: functional, cell-based; details: dose 1.25-5 µM
[10] = Drug uptake in mitochondria of rat PC12 cells at 8 uM incubated for 8.5 hrs by HPLC analysis; type: ADME; details: pc12, 8.5 h
PC-12 [11] = experiment: Neuroprotective activity in H2O2-induced rat PC12 cells assessed as reversal of mitochondrial membrane potential reduction by measuring red fluorescence at 2.5 uM incubated with compound for 24 hrs followed by H2O2 addition and measured after 24 hrs by JC-1 based fluorescence microscopic analysis (reference value: 21.62 a.u.); type: functional
PC-12 [12] = experiment: Neuroprotective activity in H2O2-induced rat PC12 cells assessed as suppression of Mfn-1 expression in presence of 3-TYP by Western blot analysis; type: functional, cell-based
PC-12 [13] = experiment: Neuroprotective activity against H2O2-induced cell injury in rat PC12 cells assessed as cell viability at 2 uM incubated for 24 hrs by MTT assay; type: functional, cell-based
[14] = Drug uptake in rat PC12 cells at 8 uM incubated for 8.5 hrs by HPLC analysis; type: ADME, cell-based; details: pc-12, 8.5 h
PC-12 [15] = experiment: Neuroprotective activity in H2O2-induced rat PC12 cells assessed as reversal of mitochondrial membrane potential reduction by measuring red fluorescence fold change at 5 uM incubated with compound for 24 hrs followed by H2O2 addition and measured after 24 hrs by JC-1 based fluorescence microscopic analysis (reference value: 1.00); type: functional
PC-12 [16] = experiment: Neuroprotective activity in H2O2-induced rat PC12 cells assessed as upregulation of p-AMPK/AMPK ratio at 1.25 to 5 uM by Western blot analysis; type: functional, cell-based; details: dose 1.25-5 µM
PC-12 [17] = experiment: Neuroprotective activity in H2O2-induced rat PC12 cells assessed as reversal of mitochondrial membrane potential reduction by measuring green fluorescence fold change at 1.5 uM incubated with compound for 24 hrs followed by H2O2 addition and measured after 24 hrs by JC-1 based fluorescence microscopic analysis (reference value: 1.00); type: functional
PC-12 [18] = experiment: Neuroprotective activity in H2O2-induced rat PC12 cells assessed as reversal of mitochondrial membrane potential reduction by measuring green fluorescence at 5 uM incubated with compound for 24 hrs followed by H2O2 addition and measured after 24 hrs by JC-1 based fluorescence microscopic analysis (reference value: 4.90 a.u.); type: functional
PC-12 [19] = experiment: Neuroprotective activity in H2O2-induced rat PC12 cells assessed as reversal of mitochondrial membrane potential reduction by measuring red fluorescence at 1.25 uM incubated with compound for 24 hrs followed by H2O2 addition and measured after 24 hrs by JC-1 based fluorescence microscopic analysis (reference value: 21.62 a.u.); type: functional
PC-12 [20] = experiment: Induction of autophagy in rat PC12 cells assessed as reduction of LC3-II/I ratio in presence of 3-TYP by Western blot analysis; type: functional, cell-based
PC-12 [21] = experiment: Neuroprotective activity in H2O2-induced rat PC12 cells assessed as upregulation of SIRT-3 level at 1.25 to 5 uM by Western blot analysis; type: functional, cell-based; details: dose 1.25-5 µM
[22] = Drug uptake in cytoplasm of rat PC12 cells at 8 uM incubated for 8.5 hrs by HPLC analysis; type: ADME, subcellular; details: pc12, 8.5 h
PC-12 [23] = experiment: Neuroprotective activity in H2O2-induced rat PC12 cells assessed as reversal of mitochondrial membrane potential reduction by measuring green fluorescence fold change at 5 uM incubated with compound for 24 hrs followed by H2O2 addition and measured after 24 hrs by JC-1 based fluorescence microscopic analysis (reference value: 1.00); type: functional
PC-12 [24] = experiment: Neuroprotective activity in H2O2-induced rat PC12 cells assessed as reversal of mitochondrial membrane potential reduction by measuring green fluorescence at 2.5 uM incubated with compound for 24 hrs followed by H2O2 addition and measured after 24 hrs by JC-1 based fluorescence microscopic analysis (reference value: 4.90 a.u.); type: functional
PC-12 [25] = experiment: Induction of autophagy in H2O2-induced rat PC12 cells assessed as downregulation of P62 expression by Western blot analysis; type: functional, cell-based; details: dose 1.25-5 µM

**Q.** For C=CCc1ccc(O)c(-c2ccc(OCCCNC(=O)[C@H](CCCNC(=O)OCc3ccccc3)NC(=O)[C@@H](NC(=O)[C@@H]3CCCN3C(=O)[C@@H](Cc3ccccc3)NC(=O)[C@H](CC(C)C)NC(=O)OC(C)(C)C)C(C)C)c(CC=C)c2)c1, which “fold change (FC)” value (PC-12 [1]) is on record?
**A.** 0.14

**Q.** And the “fold change (FC)” value (PC-12 [2])?
**A.** 2.91

**Q.** And the Activity (PC-12 [3])?
**A.** Active

**Q.** And the “fold change (FC)” value (PC-12 [4])?
**A.** 0.52

**Q.** What about the Activity (PC-12 [5]) of the same compound?
**A.** Dose-dependent-effect

**Q.** And the Activity (PC-12 [6])?
**A.** 3.7 a.u.

**Q.** What about the Activity (PC-12 [7]) of the same compound?
**A.** Dose-dependent-effect

**Q.** What about the Activity (PC-12 [8]) of the same compound?
**A.** 15.68 a.u.

**Q.** And the Activity (SH-SY5Y)?
**A.** inactive

**Q.** And the Activity (PC-12 [9])?
**A.** Active

**Q.** And the Drug uptake [10]?
**A.** Active

**Q.** And the Activity (PC-12 [11])?
**A.** 11.01 a.u.

**Q.** And the Activity (PC-12 [12])?
**A.** Active

**Q.** What about the Activity (PC-12 [13]) of the same compound?
**A.** Active

**Q.** What about the Drug uptake [14] of the same compound?
**A.** Active

**Q.** What about the “fold change (FC)” value (PC-12 [15]) of the same compound?
**A.** 0.74

**Q.** What about the Activity (PC-12 [16]) of the same compound?
**A.** Active

**Q.** And the “fold change (FC)” value (PC-12 [17])?
**A.** 1.4

**Q.** What about the Activity (PC-12 [18]) of the same compound?
**A.** 4.76 a.u.

**Q.** And the Activity (PC-12 [19])?
**A.** 3.18 a.u.

**Q.** What about the Activity (PC-12 [20]) of the same compound?
**A.** Active

**Q.** And the Activity (PC-12 [21])?
**A.** Active

**Q.** And the Drug uptake [22]?
**A.** Active

**Q.** What about the “fold change (FC)” value (PC-12 [23]) of the same compound?
**A.** 1.44

**Q.** What about the Activity (PC-12 [24]) of the same compound?
**A.** 7.17 a.u.

**Q.** And the Activity (PC-12 [25])?
**A.** Dose-dependent-effect
